Literature values as cited in patent US20080299189A1, “CONTROLLED RELEASE DOPAMINE AGONIST COMPOSITIONS” (DRUGTECH CORPORATION, priority 2007, published 2008).

Key:
[1] = compared to placebo

## CCCN[C@H]1CCc2nc(N)sc2C1 [pramipexole, (S)-2-amino-4,5,6,7-tetrahydro-6-(propylamino)benzothiazole]
[1]
  relative risk of hallucination: 5.2
  relative risk of hypotension: 1.65
  relative risk of somnolence: 2.01
In vivo
  half-life: 8.5 h
Printed as a time
  Cmax: 1 to 3 h
